Test results as given in ChEMBL document CHEMBL4699438, “Toward the discovery and development of effective modulators of α-synuclein amyloid aggregation” (Eur J Med Chem, 2019).

Experiments:
[1] = target: T1, Alpha-synuclein (Homo sapiens, UniProt P37840); assay: Inhibition of wild type alpha-synuclein aggregation (unknown origin) expressed in Escherichia coli BL21 cells incubated for 30 days by thioflavin T based fluorescence assay
[2] = target: T1, Alpha-synuclein; assay: Inhibition of human alpha-synuclein aggregation expressed in Escherichia coli BL21(DE3) cells assessed as percent of un-inhibition measured at 16 hrs by thioflavin T based fluorescence assay relative to control; design: concentration or dose not given beside the values
[3] = target: T1, Alpha-synuclein; assay: Inhibition of alpha-synuclein aggregation (unknown origin) expressed in Escherichia coli BL21(DE3) cells assessed as HFIP-induced protein aggregation measured after 16 to 18 hrs by thioflavin T based fluorescence assay relative to control; design: scale not given: the % may be the effect or the level left; conditions: time hrs 16-18
[4] = target: T1, Alpha-synuclein; assay: Inhibition of alpha-synuclein aggregation (unknown origin) expressed in Escherichia coli BL21(DE3) cells; conditions: concentration not given here
[5] = target: T1, Alpha-synuclein; assay: Inhibition of human alpha-synuclein filament formation expressed in Escherichia coli BL21(DE3) cells incubated for 72 hrs by thioflavin S based fluorescence assay
[6] = target: T1, Alpha-synuclein; assay: Inhibition of alpha-synuclein fibril formation (unknown origin) incubated for 24 hrs to 7 days by thioflavin S based fluorescence assay
[7] = target: T1, Alpha-synuclein; assay: Inhibition of alpha-synuclein aggregation (unknown origin) incubated for 8 days by thioflavin S based fluorescence assay
[8] = target: T1, Alpha-synuclein; assay: Inhibition of alpha-synuclein fibril formation (unknown origin) incubated for 6 days by thioflavin S based fluorescence assay
[9] = Elimination half-life in human; assay type: ADME; conditions: read-out: beta t1/2 (converted)

COc1cc(/C=C/c2cc(/C=C/c3ccc(O)c(OC)c3)n(-c3cccc([N+](=O)[O-])c3)n2)ccc1O
IC50 [1]: 89.1 µM

CCC(=O)N[C@@H](Cc1c[nH]c2ccccc12)C(=O)N[C@H](C(=O)N1CCC[C@@H]1C(=O)NCC(=O)N[C@@H](CCCCN)C(=O)N[C@@H](Cc1c[nH]c2ccccc12)C(=O)N[C@H](C(=O)NCC(N)=O)[C@@H](C)O)[C@@H](C)CC
Remaining aggregation (% of control) [2]: 69%
Activity [3]: 37%
inhibition [4]: 50%

CC[C@H](C)[C@H](NC(=O)[C@H](CO)NC(=O)[C@H](Cc1c[nH]c2ccccc12)NC(=O)[C@@H](NC(=O)[C@H](CC(C)C)NC(=O)[C@H](CCCCN)NC(=O)[C@@H](N)CCCCN)[C@@H](C)O)C(=O)N1CCC[C@@H]1C(=O)NCC(=O)N[C@@H](CCCCN)C(=O)N[C@@H](CCCCN)C(=O)N[C@@H](Cc1c[nH]c2ccccc12)C(=O)N[C@H](C(=O)N[C@H](C(=O)N[C@@H](CO)C(=O)N[C@@H](C)C(=O)O)C(C)C)[C@@H](C)O
Remaining aggregation (% of control) [2]: 20%

CC[C@H](C)[C@H](NC(=O)[C@H](Cc1c[nH]c2ccccc12)NC(=O)[C@H](CCCCN)NC(=O)CN)C(=O)N[C@H](C(=O)N[C@H](C(=O)N[C@@H](CO)C(=O)N[C@H](C(=O)N1CCC[C@@H]1C(=O)N1CCC[C@H]1C(=O)N[C@@H](CCCCN)C(=O)N[C@@H](CCCCN)C(=O)N[C@@H](CC(C)C)C(=O)N[C@H](C(=O)N[C@H](C(=O)N[C@@H](Cc1c[nH]c2ccccc12)C(=O)N[C@H](C(=O)N1CCC[C@@H]1C(=O)O)[C@@H](C)CC)C(C)C)[C@@H](C)O)[C@@H](C)CC)C(C)C)[C@@H](C)O
Activity [3]: 34%
inhibition [4]: 65%

CC[C@H](C)[C@H](NC(=O)[C@H](Cc1c[nH]c2ccccc12)NC(=O)[C@H](CCCCN)NC(=O)CNC(=O)[C@H]1CCCN1C(=O)[C@@H](NC(=O)[C@H](Cc1c[nH]c2ccccc12)NC(=O)[C@@H](NC(=O)[C@@H](NC(=O)[C@H](CC(C)C)NC(=O)[C@H](CCCCN)NC(=O)[C@@H](N)CCCCN)[C@@H](C)O)C(C)C)[C@@H](C)CC)C(=O)N[C@H](C(=O)N[C@H](C(=O)N[C@@H](CO)C(=O)N[C@@H](C)C(=O)O)C(C)C)[C@@H](C)O
Remaining aggregation (% of control) [2]: 19%
Activity [3]: 27%
inhibition [4]: 75%

CC[C@H](C)[C@H](NC(=O)[C@H](Cc1c[nH]c2ccccc12)NC(=O)[C@H](CCCCN)NC(=O)CNC(=O)[C@H]1CCCN1C(=O)[C@@H](NC(=O)[C@H](Cc1c[nH]c2ccccc12)NC(=O)[C@@H](NC(=O)[C@@H](NC(=O)[C@H](CC(C)C)NC(=O)[C@H](CS)NC(=O)[C@@H](N)CCCCN)[C@@H](C)O)C(C)C)[C@@H](C)CC)C(=O)N[C@H](C(=O)N[C@H](C(=O)N[C@@H](CS)C(=O)N[C@@H](C)C(=O)O)C(C)C)[C@@H](C)O
Activity [3]: 49%
inhibition [4]: 50%

CC[C@H](C)[C@H](NC(=O)[C@H](Cc1ccc(O)cc1)NC(=O)[C@H](CCCCN)NC(=O)CNC(=O)[C@H]1CCCN1C(=O)[C@@H](NC(=O)[C@H](Cc1ccc(O)cc1)NC(=O)[C@@H](NC(=O)[C@@H](NC(=O)[C@H](CC(C)C)NC(=O)[C@H](CCCCN)NC(=O)[C@@H](N)CCCCN)[C@@H](C)O)C(C)C)[C@@H](C)CC)C(=O)N[C@H](C(=O)N[C@H](C(=O)N[C@@H](CO)C(=O)N[C@@H](C)C(=O)O)C(C)C)[C@@H](C)O
Remaining aggregation (% of control) [2]: 18%

O=C(O[C@@H]1Cc2c(O)cc(O)cc2O[C@H]1c1ccc(O)c(O)c1)c1cc(O)c(O)c(O)c1 [(-)-CATECHINGALLATE]
IC50 [5]: 21.4 µM

Oc1cc(O)c2c(c1)O[C@H](c1ccc(O)c(O)c1)[C@H](O)C2 [(-)-EPICATECHIN]
IC50 [5]: 29.9 µM
IC50 [6]: 0.8 µM

C[C@]12CCC(=O)C=C1CC[C@@H]1[C@@H]2CC[C@]2(C)C(=O)CC[C@@H]12 [ANDROSTENEDIONE]
IC50 [7]: 85.9 µM

O=c1cc(-c2ccccc2)oc2cc(O)c(O)c(O)c12 [BAICALEIN]
IC50 [5]: 8.2 µM

CC(C)C[C@H]1C(=O)N2CCC[C@H]2[C@]2(O)O[C@](NC(=O)[C@@H]3C=C4c5cccc6[nH]c(Br)c(c56)C[C@H]4N(C)C3)(C(C)C)C(=O)N12 [BROMOCRIPTINE]
IC50 [8]: 24.7 µM

COc1cc(/C=C/c2cc(/C=C/c3ccc(O)c(OC)c3)[nH]n2)ccc1O [CURCUMIN PYRAZOLE]
IC50 [1]: 127 µM

Oc1cc(O)c2cc(O)c(-c3ccc(O)c(O)c3)[o+]c2c1 [CYANIDIN CHLORIDE]
IC50 [5]: 10.3 µM

Oc1cc(O)c2cc(O)c(-c3cc(O)c(O)c(O)c3)[o+]c2c1 [DELPHINIDIN CHLORIDE]
IC50 [5]: 6.5 µM

NCCc1ccc(O)c(O)c1 [DOPAMINE]
IC50 [5]: 7.1 µM
IC50 [8]: 0.53 µM

O=C(O[C@@H]1Cc2c(O)cc(O)cc2O[C@@H]1c1ccc(O)c(O)c1)c1cc(O)c(O)c(O)c1 [EPICATECHIN GALLATE]
IC50 [5]: 9.8 µM
half-life [9]: 3.4 h

Oc1cc(O)c2c(c1)O[C@H](c1cc(O)c(O)c(O)c1)[C@H](O)C2 [EPIGALLOCATECHIN]
IC50 [5]: 10.6 µM

C[C@]12CC[C@@H]3c4ccc(O)cc4CC[C@H]3[C@@H]1CC[C@@H]2O [ESTRADIOL]
IC50 [7]: 60 µM

C[C@]12CC[C@@H]3c4ccc(O)cc4CC[C@H]3[C@@H]1C[C@@H](O)[C@@H]2O [ESTRIOL]
IC50 [7]: 20.1 µM

C[C@]12CC[C@@H]3c4ccc(O)cc4CC[C@H]3[C@@H]1CCC2=O [ESTRONE]
IC50 [7]: 93.1 µM

COc1cc(/C=C/C(=O)O)ccc1O [FERULATE]
IC50 [6]: 0.75 µM

O=C(O[C@@H]1Cc2c(O)cc(O)cc2O[C@H]1c1cc(O)c(O)c(O)c1)c1cc(O)c(O)c(O)c1 [GALLOCATECHIN GALLATE]
IC50 [5]: 3.6 µM
